Test results as given in PubChem BioAssay (NCI).
“And” between values parts separate entries of the source, which are not always exact repeats. Identical values can stand only once.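 Test compounds were applied to cells in 96-well plates for 48 hours at 5 doses. Here, GI50 denotes the concentration required for 50% inhibition of growth. TGI denotes the concentration required for complete inhibition of growth.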

Experiments:
Assay in all cases: NCI tumour cell line growth inhibition, 48 h
HOP-62 NSCLC = system: HOP-62 NSCLC
HCC-2998 colon = system: HCC-2998 colon
UO-31 renal = system: UO-31 renal
HCT-116 colon = system: HCT-116 colon
SK-MEL-5 melanoma = system: SK-MEL-5 melanoma
MALME-3M melanoma = system: MALME-3M melanoma
HOP-92 NSCLC = system: HOP-92 NSCLC
SN12C renal = system: SN12C renal

SMILES	GI50 (HOP-62 NSCLC)	TGI (HOP-62 NSCLC)	GI50 (HCC-2998 colon)	TGI (HCC-2998 colon)	GI50 (UO-31 renal)	TGI (UO-31 renal)	GI50 (HCT-116 colon)	TGI (HCT-116 colon)	GI50 (SK-MEL-5 melanoma)	TGI (SK-MEL-5 melanoma)	GI50 (MALME-3M melanoma)	TGI (MALME-3M melanoma)	GI50 (HOP-92 NSCLC)	TGI (HOP-92 NSCLC)	GI50 (SN12C renal)	TGI (SN12C renal)
CC(C)(C)OC(=O)NCCCCCCCCn1c2c(c3ccccc3c1=O)C(=O)c1ccccc1-2	11.6 µM	35 µM	> 50 µM	> 50 µM	34 µM	> 50 µM	26.8 µM	> 50 µM	> 40 µM	> 50 µM	> 15.9 µM	> 43.7 µM	9.05 µM	21 µM	> 50 µM	> 50 µM
Nc1ccc(C#Cc2cncnc2Nc2ccc(OCc3cccc(F)c3)c(Cl)c2)cc1	> 17.3 µM	> 25 µM	11.1 µM	> 25 µM	3.2 µM	> 25 µM	10.6 µM	> 25 µM	> 15.8 µM	> 25 µM	> 25 µM	> 25 µM	10.6 µM	> 25 µM	> 15.6 µM	> 25 µM
C#CCN1CCN(C(=S)N/N=C(\C)c2ccccn2)CC1	0.124 µM	5.89 µM	–	4.38 µM	2.61 µM	4.56 µM and 3.77 µM	–	1.22 µM	–	5.05 µM and 2.86 µM	0.496 µM	5.76 µM and 4.6 µM	3.43 µM	5.13 µM and 5.16 µM	2.39 µM	11.4 µM
COC(=O)c1c2c(c(C)[n+]([O-])c1C)C(=O)C=C(NCc1cccc(OC)c1)C2=O	1.58 µM	3.39 µM	–	–	1.13 µM	2.44 µM	–	–	0.171 µM	0.334 µM	0.15 µM	0.341 µM	1.99 µM	4.7 µM	0.323 µM	1.24 µM
C=C(CN1CCN(c2cccc(C(F)(F)F)c2)CC1)c1ccc(C(=O)Nc2ccccc2N)cc1	0.696 µM	6.27 µM	–	–	2.4 µM	12.1 µM	1.14 µM	11.7 µM	0.568 µM	6.72 µM	–	–	1.51 µM	17.8 µM	2.19 µM	14.5 µM
O=C(O)c1cc2ccccc2c(N=Nc2c([N+](=O)[O-])cc([N+](=O)[O-])cc2S(=O)(=O)O)c1O	–	> 100 µM	–	–	–	> 100 µM	–	> 100 µM	–	> 100 µM	–	> 100 µM	–	> 100 µM	–	> 100 µM
N#C/C(=C\c1ccc(Br)cc1)n1nnc2cccc(F)c21	2.38 µM	8.49 µM	1.56 µM	3.13 µM	1.41 µM	2.72 µM	–	–	1.41 µM	2.75 µM	–	–	–	–	1.55 µM	3.14 µM
O=C(O)CCC1COc2ccccc2O1 (stereo unspecified)	–	> 10 µM	–	> 10 µM	–	> 10 µM	–	> 10 µM	–	> 10 µM	–	> 10 µM	–	> 10 µM	–	> 10 µM
Nc1nc2c(c3ncccc13)C(c1cccc(Cl)c1)Cc1ncccc1-2 (stereo unspecified)	2.45 µM	18.1 µM	2.77 µM	15.1 µM	3.98 µM	34.9 µM	1.36 µM	14.5 µM	1.34 µM	14.7 µM	15.2 µM	60.4 µM	–	–	5.93 µM	44.5 µM
CCC(C(=O)[O-])C(=O)[O-].CCC(C(=O)[O-])C(=O)[O-].N.N.NCCCCCN.[Pt+4].[Pt+4]	> 100 µM	> 100 µM	> 100 µM	> 100 µM	> 100 µM	> 100 µM	> 100 µM	> 100 µM	> 100 µM	> 100 µM	> 100 µM	> 100 µM	> 100 µM	> 100 µM	15 µM	87.3 µM
O=C1/C(=C/c2ccccc2)SC(=Nc2ccccc2)N1Nc1ccccc1	23.4 µM	> 100 µM	20 µM	> 100 µM	7.94 µM	> 100 µM	4.49 µM	> 100 µM	14.4 µM	28.8 µM	19.8 µM	66.8 µM	3.6 µM	42.2 µM	5.48 µM	23.4 µM
C/C=C(\C)C(=O)O[C@@H]1C(O)[C@H]2OC(COC(=O)CCC(=O)CCCCCC[C@H](CCCCC)O[C@@H]3OC(C)[C@H](OC(C)=O)C(O)[C@H]3O2)[C@H]1OC(=O)/C=C/c1ccccc1 (stereo partly specified)	< 0.0148 µM	7.18 µM	1.79 µM	> 100 µM	< 0.01 µM	8.34 µM	< 0.01 µM	> 33.6 µM	< 0.01 µM	–	0.0558 µM	6.48 µM	< 0.01 µM	0.415 µM	0.0101 µM	24.1 µM
O=C(Nc1cnn2ccc(N3CCC[C@@H]3c3cc(F)ccc3F)nc12)N1CC[C@H](O)C1	> 100 µM	> 100 µM	> 100 µM	> 100 µM	> 100 µM	> 100 µM	> 100 µM	> 100 µM	> 100 µM	> 100 µM	> 100 µM	> 100 µM	> 100 µM	> 100 µM	> 100 µM	> 100 µM
CN1CCN(c2ccc(-c3cnc4c(-c5csc6ccccc56)cnn4c3)cc2)CC1	8.37 µM	> 15 µM	6 µM	> 15 µM	10.3 µM	> 15 µM	3.15 µM	> 15 µM	2.48 µM	4.54 µM	3.04 µM	7.68 µM	> 15 µM	> 15 µM	14.8 µM	> 15 µM
COC(=O)[C@]12CC[C@@H](C)[C@H](C)[C@@H]1C1=CC[C@@H]3[C@@]4(C)C(C=O)=C[C@@](C)(COC(C)=O)[C@@H]4[C@H](O)C[C@@]3(C)[C@]1(C)CC2	2.74 µM	6.04 µM	1.83 µM	3.6 µM	1.57 µM	3.84 µM	–	–	1.66 µM	3.19 µM	1.76 µM	3.63 µM	1.65 µM	4.28 µM	2.3 µM	6.08 µM
C(CCc1nnc2c(n1)CCCC2)Cc1nnc2c(n1)CCCC2	–	> 100 µM	–	> 100 µM	–	> 100 µM	–	> 100 µM	–	> 100 µM	–	> 100 µM	–	> 100 µM	–	> 100 µM
NC1=NC(c2ccccc2)N=C(Nc2ccccc2)N1 (stereo unspecified)	> 100 µM	> 100 µM	–	–	–	–	> 100 µM	> 100 µM	93 µM	> 100 µM	–	–	> 100 µM	> 100 µM	> 100 µM	> 100 µM

SMILES	GI50 (HOP-62 NSCLC)	TGI (HOP-62 NSCLC)	GI50 (HCC-2998 colon)	TGI (HCC-2998 colon)	GI50 (UO-31 renal)	TGI (UO-31 renal)	GI50 (HCT-116 colon)	TGI (HCT-116 colon)	GI50 (SK-MEL-5 melanoma)	TGI (SK-MEL-5 melanoma)	GI50 (MALME-3M melanoma)	TGI (MALME-3M melanoma)	GI50 (HOP-92 NSCLC)	TGI (HOP-92 NSCLC)	GI50 (SN12C renal)	TGI (SN12C renal)
Nc1ccn([C@H]2C[C@@H](O)[C@@H](CO)S2)c(=O)n1	> 32 µM	> 100 µM	> 100 µM	> 100 µM	23.6 µM	> 100 µM	14.1 µM	> 100 µM	> 42.3 µM	> 100 µM	> 100 µM	> 100 µM	> 100 µM	> 100 µM	> 44.7 µM	> 100 µM
NCCNCC(O)CO (stereo unspecified)	–	> 100 µM	–	–	–	> 100 µM	–	> 100 µM	–	> 100 µM	–	> 100 µM	–	> 100 µM	–	> 100 µM
CCCCn1c2c(c3ccccc3c1=O)C(=O)c1ccccc1-2	–	> 100 µM	–	–	–	> 100 µM	–	> 100 µM	–	> 100 µM	–	> 100 µM	–	> 100 µM	–	> 100 µM
Nc1c(C(=O)c2cccc(OCCN3CCOCC3)c2)cnn1-c1ccc(F)cc1	> 25 µM	> 25 µM	> 25 µM	> 25 µM	> 25 µM	> 25 µM	> 25 µM	> 25 µM	> 25 µM	> 25 µM	> 25 µM	> 25 µM	> 25 µM	> 25 µM	> 25 µM	> 25 µM
C=C1C(=O)O[C@H]2[C@H]1CC/C(COC(=O)C(=O)c1c[nH]c3ccc(OC)cc13)=C\CC[C@@]1(C)O[C@@H]21	6.49 µM	11.9 µM	6.29 µM	9.82 µM	4.6 µM	7.91 µM	4.48 µM	8.73 µM	5.48 µM	8.72 µM	6.43 µM	11 µM	1.74 µM	3.85 µM	6.1 µM	12.2 µM
O=C1c2ccccc2S(=O)(=O)N1CSC(=S)N1CCCC1	> 100 µM	> 100 µM	> 53.4 µM	> 100 µM	> 100 µM	> 100 µM	63.8 µM	> 100 µM	> 27.6 µM	> 100 µM	> 100 µM	> 100 µM	> 100 µM	> 100 µM	> 100 µM	> 100 µM
COc1cc2c3c(n(CCCN)c(=O)c2cc1OC)-c1ccc(F)cc1C3=O	0.544 µM	2.05 µM	2.67 µM	12.6 µM	8.15 µM	23.7 µM	1.19 µM	2.46 µM	1.29 µM	6.06 µM	9.22 µM	28.5 µM	8.91 µM	42.9 µM	4.29 µM	17.4 µM
COc1ncc(-c2nc3c(n2C(C)C)[C@H](c2ccc(Cl)cc2)N(c2cc(Cl)cn(C)c2=O)C3=O)c(OC)n1	90 µM	> 100 µM	60.1 µM	> 100 µM	5.83 µM	88.8 µM	22 µM	> 100 µM	11.7 µM	24.1 µM	14.6 µM	59.3 µM	3.28 µM	52.6 µM	49.8 µM	> 100 µM
COc1cc2c3c(n(CCN)c(=O)c2cc1OC)-c1cc2c(cc1C3=O)OCO2	0.122 µM	0.774 µM	–	–	0.226 µM	1.91 µM	0.0521 µM	–	< 0.01 µM	0.0975 µM	0.24 µM	6.12 µM	0.82 µM	2.62 µM	0.254 µM	1.3 µM
COc1cc(/C=C/C(=O)c2cc(F)c(Cl)cc2Cl)cc(OC)c1OC	82.2 µM	> 100 µM	73 µM	> 100 µM	16.3 µM	32.8 µM	12.6 µM	25.1 µM	49.6 µM	> 100 µM	10.8 µM	37.7 µM	25.9 µM	> 100 µM	27.7 µM	> 100 µM
CC[N+](CC)=c1ccc2nc3c(cc(NCc4ccccc4)c4ccccc43)oc-2c1	0.512 µM	1.86 µM	0.338 µM	1.26 µM	0.089 µM	1.15 µM	0.154 µM	0.709 µM	0.147 µM	0.28 µM	0.172 µM	0.358 µM	0.217 µM	1.33 µM	1.02 µM	2.34 µM
O=C1c2cccnc2-c2nc(/C=C/c3ccccc3)cc3c2c1nc1ccccc13	2.78 µM	11.8 µM	1.81 µM	3.2 µM	2.01 µM	6.5 µM	1.95 µM	6.14 µM	–	–	5.01 µM	20.5 µM	17.4 µM	> 100 µM	2.77 µM	9.01 µM
COc1c2ccccc2c(O)c2c(=O)c(C(=O)O)cn(C)c12	> 100 µM	> 100 µM	> 100 µM	> 100 µM	> 100 µM	> 100 µM	> 100 µM	> 100 µM	> 100 µM	> 100 µM	–	–	56.9 µM	> 100 µM	–	–
O=c1cccc(C#Cc2ccccc2)o1	4.63 µM	15.4 µM	–	–	3.41 µM	> 35.1 µM	2.8 µM	26.2 µM	2.51 µM	9.59 µM	5.09 µM	16.5 µM	2.06 µM	13.8 µM	14.5 µM	> 53.2 µM
COc1ccc2cc(C(=O)/C=C/c3cccc(Cl)c3Cl)ccc2c1	15.4 µM	38.9 µM	–	–	10.2 µM	> 53.2 µM	1 µM	19.6 µM	–	4.3 µM	> 100 µM	> 100 µM	22.1 µM	> 79.7 µM	5.67 µM	32.3 µM
O=S(=O)(NC(=S)Nc1ccccc1)c1ccc(N2N=C3c4ccccc4CC3C2c2cccs2)cc1 (stereo unspecified)	20.3 µM	45.7 µM	13.9 µM	30.8 µM	51.2 µM	> 100 µM	15.1 µM	34.8 µM	20.8 µM	44.7 µM	–	–	24.9 µM	71.7 µM	21.4 µM	43.2 µM
